Data on 1 compound can be found in publication PMC9009073, “Transcriptome Analysis of Stephania tetrandra and Characterization of Norcoclaurine-6-O-Methyltransferase Involved in Benzylisoquinoline Alkaloid Biosynthesis” (Frontiers in Plant Science, 2022).

One may read the Km as the substrate concentration at which the rate is half of its maximum.

The assay deals with St6OMT2. The assay is described as follows: UPLC quantification of (S)-coclaurine formed; Hill function fit. Type of assay: biochemical, Stephania tetrandra. As to conditions: co-substrate S-adenosyl-L-methionine (1 mM in standard assay); 37°C; PBS; substrate 10–200 μM.

As to `Oc1ccc(C[C@@H]2NCCc3cc(O)c(O)cc32)cc1` [(S)-norcoclaurine], the Km turned out to be 28.2 µM.
